# Results published in patent US20040266882A1 (priority 2001, published 2004).
# Like-named read-outs stand apart in the source and are kept apart here.
# How the values were obtained:
# C6 cells [1] = conditions: cells loaded with 0.1 μg/ml DOX alone
# Method: Cells were grown in monolayers as described above. […] Control cells received media alone.
# C-26 cells = assay: Solid tumor model, C-26 cells injected into footpad; format: in vivo, mice; conditions: for solid tumor volume with time, single agent: fluoxetine 0.04 mg/kg daily orally alone, or MMC or DOX 5 mg/kg i.v. alone
# Method: In the solid tumor model, C-26 cells were injected into the animal's right-hind footpad.
# In the solid tumor model, Mitomycin C (MMC) and Doxorubicin (DOX), were tested separately, each at a dose of 5 mg/kg body.
# [2] = test system: PANC-1, C6, MCF-7, U2OS and HT1080; conditions: 48 hours; for reduction in cell survival, drug alone: non-resistant cell lines, 0.1 μg/ml DOX or 0.3 μg/ml VIN alone
# Method: Studies similar in general to those outlined in the previous section, were conducted with five cell lines selected for this task (PANC-1, C6, MCF-7, U2OS and HT1080), increasing the length of the experiment to 48 hours. The studies were done with DOX and with Vinblastine (VIN or VLB).
# B16F10 cells = conditions: for lung metastatic burden (lung weight increase, number of lung metastasis), single agent: fluoxetine 0.04 mg/kg daily orally alone, or Doxorubicin 10 mg/kg i.v. alone
# [3] = test system: concavalin A-stimulated normal lymphocytes; conditions: doses equivalent to 20-40 mg/M^2; cited from earlier work
# C6 cells [4] = test system: C6 cells; set-up: effect on cell survival: dose or concentration left out as unconfirmed; conditions: 24 hours; for enhancement in cell death by the combination treatment: vs drug alone
# [5] = daily dose; cited from earlier work
# fibrosarcoma cells = conditions: doses equivalent to 20-40 mg/M^2; cited from earlier work
# PANC-1 cells = test system: PANC-1 cells; set-up: effect on cell survival: dose or concentration left out as unconfirmed; conditions: 24 hours; for enhancement in cell death by the combination treatment: vs drug alone
# [6] = […] μM fluoxetine + 0.1 μg/ml Doxorubicin
# [7] = […] μM fluoxetine + 30 μg/ml Mitomycin C
compound,measurement,setting,value
COc1cccc2c1C(=O)c1c(O)c3c(c(O)c1C2=O)C[C@@](O)(C(=O)CO)C[C@@H]3O[C@H]1C[C@H](N)[C@H](O)[C@H](C)O1 [Doxorubicin],depletion of intracellular DOX at 2 hours,C6 cells [1],100%
same,"solid tumor volume with time, single agent",C-26 cells,increases fast and exponentially
same,"reduction in cell survival, drug alone",[2],50%
same,"lung metastatic burden (lung weight increase, number of lung metastasis), single agent",B16F10 cells,only a mild reduction
CC[C@]1(O)C[C@@H]2CN(CCc3c([nH]c4ccccc34)[C@@](C(=O)OC)(c3cc4c(cc3OC)N(C)[C@H]3[C@@](O)(C(=O)OC)[C@H](OC(C)=O)[C@]5(CC)C=CCN6CC[C@]43[C@@H]65)C2)C1 [Vinblastine],"reduction in cell survival, drug alone",[2],50%
"CNCCC(Oc1ccc(C(F)(F)F)cc1)c1ccccc1 (stereo not shown) [fluoxetine, N-methyl 3-(p-trifluoromethylphenoxy)-3-phenylpropylamine]",effect on proliferation of concavalin A-stimulated normal lymphocytes,[3],inhibits the proliferation
same,enhancement in cell death by the combination treatment,C6 cells [4]; [6],3-4 fold
same,enhancement in cell death by the combination treatment,C6 cells [4]; [7],3-4 fold
same,effect on cell survival,C6 cells [4]; […] μM fluoxetine alone,does not affect cell survival at all
same,prolongation of survival,"C-26 cells; DOX+CS vs saline, CS alone and DOX alone",3 fold
same,prolongation of survival,"C-26 cells; MMC+CS vs saline, CS alone and MMC alone",2 fold
same,"solid tumor size and growth, combination therapy",C-26 cells; fluoxetine 0.04 mg/kg daily orally + DOX 5 mg/kg i.v.,tumors are substantially smaller
same,"solid tumor size and growth, combination therapy",C-26 cells; fluoxetine 0.04 mg/kg daily orally + MMC 5 mg/kg i.v.,tumors are substantially smaller
same,"solid tumor volume with time, single agent",C-26 cells,increases fast and exponentially
same,"known, acceptable safety limit",[5],80 mg/M^2
same,effect on proliferation of fibrosarcoma cells,fibrosarcoma cells,promotes the proliferation
same,"toxicity to the cells, fluoxetine alone","[2]; fluoxetine alone, 0-15 μM",not toxic
same,enhancement in cell death by the combination treatment,PANC-1 cells; [6],3-4 fold
same,enhancement in cell death by the combination treatment,PANC-1 cells; [7],3-4 fold
same,effect on cell survival,PANC-1 cells; […] μM fluoxetine alone,does not affect cell survival at all
same,"survival, single agent","B16F10 cells; CS alone or CT alone, 75-days experiment",died rather early
same,"lung metastatic burden, combination treatment",B16F10 cells; fluoxetine 0.04 mg/kg daily orally + Doxorubicin 10 mg/kg i.v.,substantial reduction
same,"lung metastatic burden (lung weight increase, number of lung metastasis), single agent",B16F10 cells,highest metastatic burden
same,"survival, combination treatment","B16F10 cells; fluoxetine + Doxorubicin, 75-days experiment",long survivors
CO[C@@]12[C@H](COC(N)=O)C3=C(C(=O)C(C)=C(N)C3=O)N1C[C@@H]1N[C@@H]12 [Mitomycin C],"solid tumor volume with time, single agent",C-26 cells,increases fast and exponentially
